Laboratory results published in patent publication EP4567035A1, “NOVEL COMPOUND AS HYPOXIA-INDUCIBLE FACTOR 1(HIF-1) INHIBITOR OR VASCULAR ENDOTHELIAL GROWTH FACTOR (VEGF) INHIBITOR, AND PHARMACEUTICAL COMPOSITION COMPRISING SAME” (Nextgen Bioscience Co., Ltd., priority 2022, dated 2024).
Where two headings read alike, the source gives them in different places.

What was measured:
HIF-1α = target: T1, HIF-1α (Homo sapiens, UniProt Q16665); experiment: Analysis of HIF-1α protein expression (Western blot) in ARPE-19 cells under mixed hypoxic condition; assay type: cell-based; details: concentration range at which HIF-1α expression is reduced by 50% vs untreated control
T1 construct: endogenous in cells; host or cells: ARPE-19 (ATCC CRL-2302)
Protocol: (§1) ARPE-19 cells (Human retinal pigment epithelial cells, ATCC CRL-2302) were cultured in DMEM/F12 (LM002-08, Welgene) medium containing 10% fetal bovine serum (FBS, 16000-044, Gibco) in an incubator at 37°C with 5% carbon dioxide. When the cells grew sufficiently, they were cultured in experimental culture dishes for protein isolation and medium supernatant acquisition.
(§2) Cells were detached from the culture dish using TrypLE™ Express (Gibco). After centrifugation at 1000 rpm for 3 minutes, the supernatant was removed. The cells were counted and seeded into new culture dishes. Normoxic conditions were maintained by culturing the cells in a 37°C incubator with 5% carbon dioxide, and hypoxic conditions were maintained by culturing the cells in a hypoxic incubator with 1% oxygen, 5% carbon dioxide, and 94% nitrogen gas.
In a disease of macular degeneration, hypoxia is a very important condition, and since the expression of downstream genes is regulated by HIF-1α, a transcription factor that is stabilized in hypoxic conditions, the following experiment was conducted to confirm this.
Mixed hypoxic condition was used for HIF-1α stability experiments, in which hypoxia was induced with 1% oxygen and the stability of HIF-1α was enhanced by treatment with cobalt chloride (CoCl2).
The compounds of each Example were diluted to 0.1 nM, 1 nM, 3 nM, 10 nM, 30 nM, 100 nM, 300 nM, 1 µM, and 10 µM in DMEM/F12 medium without fetal bovine serum, pretreated for 16 hours or 2 hours, and cultured for 1 hour or 24 hours in a mixed hypoxic condition. The cell medium was discarded, and protein lysates were obtained by rapidly treating with protein lysis buffer (RIPA Lysis and Extraction buffer, Thermo Fisher Scientific). LDS (4X Bolt ™ LDS Sample buffer) and reducing agent (10X Bolt ™ Sample Reducing Agent) were added together to the protein lysate, and heated at 70°C for 10 minutes. The lysate was separated by electrophoresis on a 4-12% Bis-Tris gel, transferred to a PVDF membrane, and blocked with 3% BSA (Albumin, Bovine, Fraction V, MPbio). The membrane was incubated overnight at 4°C with a mixture of anti-HIF-1α (ab179483, abcam) and anti-b-actin (MA515739, Invitrogen) antibodies at a ratio of 1:4000. The following day, the membrane was treated with a peroxidase-conjugated secondary antibody for 1 hour at room temperature, and the target protein was expressed using an ECL solution (Clarity ™ Western ECL substrate, Bio-rad) and quantified.
Based on the results of the expression level of HIF-1α in cells treated with compounds diluted from 10 µM to 0.1 nM, the concentration range of the compound at which the expression level of HIF-1α was reduced by 50% or less compared to the untreated control group was derived.

VEGF = experiment: Evaluation of VEGF protein secretion level (Human VEGF ELISA) in ARPE-19 cell medium under hypoxic conditions; assay type: cell-based
Protocol: as §1, §2
The expression of the downstream gene, angiogenesis inducer VEGF, is regulated by HIF-1α, a major transcription factor under hypoxic conditions, and the level of secreted VEGF protein can be quantitatively confirmed through ELISA (Enzyme Linked Immunosorbent Assay, Human VEGF Quantikine ELISA Kit, R&D systems). For this purpose, the following experiment was conducted.
The compounds of each Example were diluted to 0.1 nM, 1 nM, 3 nM, 10 nM, 30 nM, 100 nM, 300 nM, 1 µM and 10 µM in DMEM/F12 medium containing 1% fetal bovine serum, pretreated for 2 hours, and cultured for 24 hours under hypoxic conditions to obtain the cell medium supernatant. The supernatant was centrifuged at 1000 rpm for 3 minutes, and a specific amount was treated with a VEGF ELISA assay kit and the absorbance value was measured at 450 nm to quantitatively confirm the level of VEGF protein (see Table 1 below).
Based on the results of secreted VEGF protein expression levels in cell media treated with compounds diluted at concentrations ranging from 10 µM to 0.1 nM, the concentration range of the compound at which the secreted VEGF protein level was reduced by 50% or less compared to the untreated control group was derived.

[1] = values marked * in the table, mixed hypoxic condition (1% oxygen + CoCl2) for 24 hours, read-out: IC50 HIF-1α, Hypoxia(24h)
[2] = ARPE-19 cells, pretreated 2 hours, 24 hours hypoxic conditions, secreted VEGF in medium supernatant by ELISA, concentration range reducing VEGF by 50% vs untreated control, read-out: IC50 VEGF
[3] = mixed hypoxic condition (1% oxygen + CoCl2) for 1 hour, read-out: IC50 HIF-1α Hypoxia (1 hour)
[4] = ARPE-19 cells, pretreated 2 hours, 24 hours hypoxic conditions, ELISA, read-out: concentration at which the secreted VEGF protein level was suppressed to less than 50%
[5] = Experimental Example 2 (HIF-1α Western blot), read-out: concentration at which the expression level of VEGF was suppressed to less than 50%

T1 sequence (Q16665 whole entry): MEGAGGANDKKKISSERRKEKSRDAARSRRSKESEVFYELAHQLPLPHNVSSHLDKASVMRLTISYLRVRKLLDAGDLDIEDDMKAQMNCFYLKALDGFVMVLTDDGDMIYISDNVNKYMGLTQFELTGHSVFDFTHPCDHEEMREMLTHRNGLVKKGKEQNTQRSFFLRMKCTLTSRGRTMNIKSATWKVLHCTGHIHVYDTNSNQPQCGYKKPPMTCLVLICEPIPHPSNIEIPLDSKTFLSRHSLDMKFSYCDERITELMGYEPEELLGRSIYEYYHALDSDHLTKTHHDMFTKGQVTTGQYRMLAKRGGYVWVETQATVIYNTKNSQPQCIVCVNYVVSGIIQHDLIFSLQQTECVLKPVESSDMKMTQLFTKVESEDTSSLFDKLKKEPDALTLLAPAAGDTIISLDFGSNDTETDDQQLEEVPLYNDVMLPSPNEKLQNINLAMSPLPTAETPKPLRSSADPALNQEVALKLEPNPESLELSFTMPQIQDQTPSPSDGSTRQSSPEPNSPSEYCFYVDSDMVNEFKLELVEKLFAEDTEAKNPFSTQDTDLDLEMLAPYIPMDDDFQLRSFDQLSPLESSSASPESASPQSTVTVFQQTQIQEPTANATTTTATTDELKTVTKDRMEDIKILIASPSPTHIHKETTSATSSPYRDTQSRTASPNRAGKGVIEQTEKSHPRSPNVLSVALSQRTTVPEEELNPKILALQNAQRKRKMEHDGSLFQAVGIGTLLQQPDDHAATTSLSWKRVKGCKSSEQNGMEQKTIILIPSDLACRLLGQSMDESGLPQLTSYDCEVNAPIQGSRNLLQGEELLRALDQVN

Row | SMILES | DC50 (HIF-1α; [1]) [nM] | IC50 (VEGF; [2]) [nM] | DC50 (HIF-1α; [3]) [nM] | IC50 (VEGF; [4]) [nM] | IC50 (VEGF; [5]) [nM]
1 | O=C(NCc1cc(F)cc(-c2cnn(-c3ccc(F)cc3)c2)c1)c1ncnc2nc(C3CCC(F)C3)[nH]c12 (single isomer, unassigned) [110(B), N-(3-Fluoro-5-(1-(4-fluorophenyl)-1H-pyrazol-4-yl)benzyl)-8-(3-fluorocyclopentyl)-7H-purine-6-carboxamide] | < 100 | 100 to 1000 |  |  | 
2 | O=C(NCc1cc(F)cc(-c2cnn(-c3ccc(F)cc3)c2)c1)c1ncnc2nc(C3CC4(CC4)C3)[nH]c12 [Example 111, N-(3-fluoro-5-(1-(4-fluorophenyl)-1H-pyrazol-4-yl)benzyl)-8-(spiro[2.3]hexan-5-yl)-7H-purine-6-carboxamide] | < 100 | 100 to 1000 |  |  | 
3 | O=C(NCc1cc(F)cc(Nc2nnco2)c1)c1ncnc2nc(C3CCCC3)[nH]c12 [Example 134, N-(3-((1,3,4-oxadiazol-2-yl)amino)-5-fluorobenzyl)-8-cyclopentyl-7H-purine-6-carboxamide] | 100 to 1000 | > 10000 |  |  | 
4 | [2H]C([2H])([2H])n1cc(Nc2cc(F)cc(CNC(=O)c3ncnc4nc(C5CCCC5)[nH]c34)c2)cn1 [Example 151, 8-Cyclopentyl-N-(3-fluoro-5-((1-(methyl-d3)-1H-pyrazol-4-yl)amino)benzyl)-7H-purine-6-carboxamide] | < 100 | 100 to 1000 |  |  | 
5 | Cn1cc(-c2cc(F)cc(CNC(=O)c3ncnc4nc(C5CC6CC6C5)[nH]c34)c2)cn1 (centres unmarked) [Example 78, 8-(Bicyclo[3.1.0]hexan-3-yl)-N-(3-fluoro-5-(1-methyl-1H-pyrazol-4-yl)benzyl)-7H-purine-6-carboxamide] | < 100 | 100 to 1000 |  |  | 
6 | O=C(NCc1cc(F)cc(-c2cnn(-c3ccc(I)cn3)c2)c1)c1ncnc2nc(C3CCCC3)[nH]c12 [Example 48, 8-Cyclopentyl-N-(3-fluoro-5-(1-(5-iodopyridin-2-yl)-1H-pyrazol-4-yl)benzyl)-7H-purine-6-carboxamide] |  | 1000 to 10000 | < 100 |  | 
7 | O=C(NCc1cc(F)cc(-c2cnn(-c3ccc(F)cc3)c2)c1)c1ncnc2nc(C3CCC(F)(F)C3)[nH]c12 (centres unmarked) [Example 84, 8-(3,3-Difluorocyclopentyl)-N-(3-fluoro-5-(1-(4-fluorophenyl)-1H-pyrazol-4-yl)benzyl)-7H-purine-6-carboxamide] |  |  |  | < 100 | < 100

Continued, values first:

Row | DC50 (HIF-1α; [1]) [nM] | IC50 (VEGF; [2]) [nM] | DC50 (HIF-1α; [3]) [nM] | IC50 (VEGF; [4]) [nM] | IC50 (VEGF; [5]) [nM] | SMILES
8 | < 100 | < 100 |  |  |  | O=C(NCc1cc(F)cc(-c2cnn(-c3ccc(F)cc3)c2)c1)c1ncnc2nc(C3CCC(F)(F)C3)[nH]c12 (single isomer, unassigned) [84(E1), 8-(3,3-Difluorocyclopentyl)-N-(3-fluoro-5-(1-(4-fluorophenyl)-1H-pyrazol-4-yl)benzyl)-7H-purine-6-carboxamide]
9 |  | 100 to 1000 | 100 to 1000 |  |  | O=C(NCc1cc(F)cc(-c2ccco2)c1)c1ncnc2nc(C3CCCC3)[nH]c12 [Example 39, 8-Cyclopentyl-N-(3-fluoro-5-(furan-2-yl)benzyl)-7H-purine-6-carboxamide]
10 | < 100 | < 100 |  | < 100 | < 100 | N#Cc1ccc(-n2cc(-c3cc(F)cc(CNC(=O)c4ncnc5nc(C6CCCC6)[nH]c45)c3)cn2)cc1 [Example 50, N-(3-(1-(4-cyanophenyl)-1H-pyrazol-4-yl)-5-fluorobenzyl)-8-cyclopentyl-7H-purine-6-carboxamide]
11 |  | 100 to 1000 | < 100 |  |  | COc1ccc(-n2cc(-c3cc(F)cc(CNC(=O)c4ncnc5nc(C6CCCC6)[nH]c45)c3)cn2)cc1 [Example 25, 8-Cyclopentyl-N-(3-fluoro-5-(1-(4-methoxyphenyl)-1H-pyrazol-4-yl)benzyl)-7H-purine-6-carboxamide]
12 | < 100 | 100 to 1000 |  |  |  | Cn1ccc(Nc2cc(F)cc(CNC(=O)c3ncnc4nc(C5CCCC5)[nH]c34)c2)n1 [Example 118, 8-Cyclopentyl-N-(3-fluoro-5-((1-methyl-1H-pyrazol-3-yl)amino)benzyl)-7H-purine-6-carboxamide]
